Columns and labels:
RARβ = biological target: T1, RARβ (Homo sapiens, UniProt P10826); assay: Ligand binding assay, RARβ
T1 sequence (P10826 1-455): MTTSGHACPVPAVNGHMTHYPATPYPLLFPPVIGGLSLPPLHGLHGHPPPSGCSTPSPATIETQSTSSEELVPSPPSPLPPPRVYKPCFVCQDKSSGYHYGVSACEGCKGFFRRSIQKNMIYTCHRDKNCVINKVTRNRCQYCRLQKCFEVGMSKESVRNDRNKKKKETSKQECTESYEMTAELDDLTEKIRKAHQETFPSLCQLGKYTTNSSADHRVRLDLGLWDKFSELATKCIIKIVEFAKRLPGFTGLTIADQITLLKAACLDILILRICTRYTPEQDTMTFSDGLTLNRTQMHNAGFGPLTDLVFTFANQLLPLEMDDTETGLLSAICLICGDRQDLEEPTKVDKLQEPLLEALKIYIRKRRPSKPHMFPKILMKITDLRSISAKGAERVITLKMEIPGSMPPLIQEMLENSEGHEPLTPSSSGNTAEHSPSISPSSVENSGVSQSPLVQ
Description: (§1) A holoreceptor transactivation assay and a ligand binding assay which measure the antagonist/agonist like activity of the compounds of the invention, or their ability to bind to the several retinoid receptor subtypes, respectively, are described in published PCT Application No. WO WO93/11755 (particularly on pages 30–33 and 37–41) published on Jun. 24, 1993, the specification of which is also incorporated herein by reference. A description of the holoreceptor transactivation assay is also provided below.
(§2) CV1 cells (5,000 cells/well) were transfected with an RAR reporter plasmid MTV-TREp-LUC (50 ng) along with one of the RAR expression vectors (10 ng) in an automated 96-well format by the calcium phosphate procedure of Heyman et al. Cell 68, 397–406, (1992). For RXRα and RXRγ transactivation assays, an RXR-responsive reporter plasmid CRBPII-tk-LUC (50 ng) along with the appropriate RXR expression vectors (10 ng) was used substantially as described by Heyman et al. above, and Allegretto et al. J. Biol. Chem. 268, 26625–26633. For RXRβ transactivation assays, an RXR-responsive reporter plasmid CPRE-tk-LUC ([…]) along with RXRβ expression vector ([…]) was used as described in above. These reporters contain DRI elements from human CRBPII and certain DRI elements from promoter, respectively. […]

RARγ = biological target: T2, RARγ (Homo sapiens, UniProt P13631); assay: Ligand binding assay, RARγ; conditions: read-out: Kd TATγ
T2 sequence (P13631 1-454): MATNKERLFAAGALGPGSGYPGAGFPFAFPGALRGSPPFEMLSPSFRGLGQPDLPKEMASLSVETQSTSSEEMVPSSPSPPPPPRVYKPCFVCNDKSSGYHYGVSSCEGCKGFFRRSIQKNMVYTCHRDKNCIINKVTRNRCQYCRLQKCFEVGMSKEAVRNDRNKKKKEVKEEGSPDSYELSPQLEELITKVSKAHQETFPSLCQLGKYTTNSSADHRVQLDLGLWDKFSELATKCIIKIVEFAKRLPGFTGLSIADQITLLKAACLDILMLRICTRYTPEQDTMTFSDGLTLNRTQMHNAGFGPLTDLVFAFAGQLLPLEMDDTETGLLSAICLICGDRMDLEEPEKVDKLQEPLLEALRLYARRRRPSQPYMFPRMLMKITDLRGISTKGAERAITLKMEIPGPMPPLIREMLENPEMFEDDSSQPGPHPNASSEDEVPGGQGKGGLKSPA
Description: as §1, §2

[1] = test system: RARγ-VP-16 chimeric receptor; assay: Retinoid inverse agonist assay: repression of basal luciferase activity of RARγ-VP-16 chimeric receptor in CV-1 cells; format: cell-based; conditions: CV-1 cells cotransfected with RARγ-VP-16, ER-RXRα chimeric receptor and ERE-tk-Luc reporter; read-out: IC50, inhibition of basal luciferase activity
Description: The activity of retinoid inverse agonists can be tested by the procedure of Klein et al. J. Biol. Chem. 271, 22692–22696 (1996) which is expressly incorporated herein by reference.
In this assay, retinoid inverse agonists are able to repress the basal activity of a RARγ-VP-16 chimeric receptor where the constituitively active domain of the herpes simplex virus (HSV) VP-16 is fused to the N-terminus of RARγ. CV-1 cells are cotransfected with RARγ-VP-16, an ER-RXRα chimeric receptor and an ERE-tk-Luc chimeric reporter gene to produce a basal level of luciferase activity, as shown by Nagpal et al. EMBO J. 12, 2349–2360 (1933) expressly incorporated herein by reference. Retinoid inverse agonists are able to inhibit the basal luciferase activity in these cells in a dose dependent manner and IC50s measured.

RARα = biological target: T3, RARα (Homo sapiens, UniProt P10276); assay: Ligand binding assay, RARα
T3 sequence (P10276 1-462): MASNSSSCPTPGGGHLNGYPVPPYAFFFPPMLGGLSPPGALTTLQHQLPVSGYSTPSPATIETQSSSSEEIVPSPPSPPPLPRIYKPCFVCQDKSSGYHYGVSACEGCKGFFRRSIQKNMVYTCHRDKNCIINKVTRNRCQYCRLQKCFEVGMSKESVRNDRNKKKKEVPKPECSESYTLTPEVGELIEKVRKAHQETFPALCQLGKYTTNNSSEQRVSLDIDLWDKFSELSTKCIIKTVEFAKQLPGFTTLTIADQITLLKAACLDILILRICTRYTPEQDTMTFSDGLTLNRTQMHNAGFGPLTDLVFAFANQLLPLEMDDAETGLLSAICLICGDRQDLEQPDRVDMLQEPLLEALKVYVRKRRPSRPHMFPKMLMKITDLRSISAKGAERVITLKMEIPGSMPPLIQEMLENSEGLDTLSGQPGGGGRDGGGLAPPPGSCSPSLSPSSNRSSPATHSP
Description: as §1, §2

| SMILES | Kd (RARβ) | Kd (RARγ) | IC50 [1] | Kd (RARα) |
| --- | --- | --- | --- | --- |
| Cc1ccc(C2=CCC(C)(C)c3cc4cccc(-c5ccc(C(=O)O)cc5)c4cc32)cc1 [Compound 2, 4-[1(Tol-4-yl)-3,4-dihydro-4,4-dimethyl-anthracen-8-yl]-benzoic acid] | 4 nM | 7 nM | 1 nM | 13 nM |
| Cc1ccc(C2=CC(C)(C)Oc3cc4ccc(-c5ccc(C(=O)O)cc5)cc4cc32)s1 [Compound 12, 4-[2,2-Dimethyl-4-(5-methyl-thien-2-yl)-benzo[1,2-g]-chrom-3-en-7-yl]benzoic acid] | 12 nM | 33 nM | – | 17 nM |

From patent publication US7166726B2, “Aryl substituted 3,4-dihydroanthracene derivatives having retinoid antagonist or retinoid inverse agonist type biological activity” (Allergan, Inc., priority 1996, dated 2007)
